Source: US20110033525A1, “Diterpene Glycosides as Natural Solubilizers” (priority 2008, published 2011)
Converted amounts (≈) assume the structure as drawn. Where two headings read alike, the source gives them in different places.

Columns and labels:
[1] = cited from earlier work; for Water solubility in words: The Merck Index (1996) or Material Safety Data Sheets; for Aqueous drug concentration, AQUEOUS SOLUTION: Table 8, without rubusoside, same values as published ones of Table 1
physchem = conditions: for Concentration dissolved in rubusoside water solution: 20 mg rubusoside in 1 ml water; for Aqueous drug concentration, 10% RUBUSOSIDE: Table 8, 10% w/v rubusoside (SFA) water solution
Protocol: Solubility test methods: A compound with low solubility was selected and weighed into multiple centrifuge tubes. Each experimental tube received a known amount of the solubilizing agent being tested. The control tubes remained only with the compound. The same volume, 1 mL, unless otherwise indicated, of deionized and distilled water was added to each tube. Alternatively, a set percentage of water solutions containing the solubilizer to be tested (e.g., 5% w/v or 10% w/v) were prepared separately. In these cases, the solubilizer-water solutions were added directly to the tubes containing the low-solubility compound. The tubes were then vortexed briefly and then sonicated for 60 min at temperature of 50° C. unless otherwise indicated. After sonication, the tubes were placed on an orbital shaker at a speed of 80 rpm in an incubator set at 25° C. for at least 24 hr. The tubes were then centrifuged at 4000 rpm for 10 min. The supernatant solution was passed through a 0.2 μm or 0.45 μm filter and analyzed for the concentration of the low-solubility compound, and sometimes the solubilizing compound, by HPLC or UV-Vis spectrophotometer.
The system was computer controlled, and the results were analyzed using Empower software. Calibrations curves were constructed using known concentrations of the compounds and were used to quantify the concentrations of the compounds dissolved in solution. A more complete description of the HPLC procedure for some of the diterpene glycosides is found in G. Chou et al., “Quantitative and fingerprint analyses of Chinese sweet tea plant (Rubus suavissimus S. Lee),” J. Agric. Food Chem., vol.
The ratio of peak areas was used to calculate the increase in water solubility in the absence or presence of solubilizers.

PC3 cells = conditions: existing formulation, Danesi 1995, Rowinsky 1990, read-out: Reported IC50 for PC3 cells, cited from earlier work
[2] = test system: PC3 (human prostate) cancer cells; test: MTT cellular proliferation assay, PC3; format: cell-based; conditions: 72 hr
Protocol: (§1) Paclitaxel and camptothecin were purchased from Sigma Chemicals (St. Louis, Mo.). […] The solution was sonicated for 60 min at 69° C. and then placed in a shaking incubator at 25° C. for 48 hr. The solution was then centrifuged at 4,000×g, and the supernatant was filtered with a 0.2 μm nylon filter. […] The sample was labeled as TXL100. To make an aqueous solution of camptothecin, about 5 mg of camptothecin was weighed into a solution containing 70 mg/ml rubusoside. The solution was sonicated for 60 min at 69° C., and then placed in a shaking incubator at 25° C. for 48 hr. The solution was then centrifuged at 4,000×g and the supernatant was filtered with a 0.2 μm nylon filter. This aqueous solution was analyzed by HPLC and contained 10 μg/ml camptothecin in the presence of 70 mg/ml rubusoside. This sample was labeled as CPT70.
(§2) Inhibition of cellular proliferation was assessed by a MTT assay. Each well of the 96-well plate contained 10^4 cells/100 μl cell culture growth medium. The cells were seeded onto the plate and placed in a 37° C. incubator overnight. On the next day, the compound treatment was set up. A series of dilutions using phosphate buffered saline (PBS) containing 10% FBS (fetal bovine serum) with either the test compound or vehicle with cell culture growth medium was made for each well with a final volume of 200 μl. Each treatment had 8 wells in a column. Prior to the addition of the test compound, the existing medium in each of the wells was aspirated completely and carefully to avoid losing cells. A series of dilutions of the aqueous samples were made ranging from 20 μl to 0.078 μl supplemented with culture media to make a final volume of 200 μl for each well. The plate was placed in a 37° C. incubator for 72 hr. On the day of the staining, MTT solution (3 mg Thiazolyl Blue Tetrazolium Bromide/ml PBS was prepared. To each well, 25 μl MTT solution was directly added. The plate was then incubated for 90 to 120 min. Afterwards, the wells were aspirated completely and carefully. Finally, 50 μl DMSO (dimethyl sulfoxide) was added to each well. The plate was read at 650 nm on a microplate reader. Cell proliferations were calculated as % of the control using the vehicle treatment as the control.
(§3) Calculations of IC50 in molar concentrations were as follows. […] Thus, 1 μl/ml of TXL solution in the culture medium equaled 17 ng TXL/ml culture medium, which equaled 19.9 nM based on the molecular weight of 854.
(§4) CPT: The sample concentration of CPT was 10 μg/ml=10 ng/μl, and the molecular weight of camptothecin is 348. Thus, 1 μl/ml of CPT solution in the culture medium equaled 10 ng CPT/ml culture medium, which equaled 28.7 nM based on the molecular weight of 348.

[3] = test system: MDA-M231 breast cancer cells; conditions: current drug formulation; Nornoo 2008; read-out: Concentration to kill 50% of cells; cited from earlier work
[4] = test system: PANC-1 (human pancreatic) cancer cells; test: MTT cellular proliferation assay, PANC-1; format: cell-based; conditions: 72 hr
Protocol: as §1, §2, §3, §4

[5] = Estimated safe daily consumption of steviol glycosides
Excerpt: Some diterpene glycosides have been approved by the FDA as sweeteners (e.g., rebaudioside A).

[6] = 25 °C, aqueous with cosolvent or surfactant or cyclodextrin, thermodynamic from solid, Solubility in water with solubilizer
[7] = volume of aqueous sample per ml culture medium
[8] = Homo sapiens, converted from μl/ml, read-out: IC50
[9] = 25 °C, aqueous with cosolvent or surfactant or cyclodextrin, thermodynamic from solid, Solubility in water with solubilizer, natural solubilizer (rubusoside) 10% w/v (100 mg in 1 ml)

In the case of `CO[C@H]1C[C@@H]2CC[C@@H](C)[C@@](O)(O2)C(=O)C(=O)N2CCCC[C@H]2C(=O)O[C@H]([C@H](C)C[C@@H]2CC[C@@H](O)[C@H](OC)C2)CC(=O)[C@H](C)/C=C(\C)[C@@H](O)[C@@H](OC)C(=O)[C@H](C)C[C@H](C)/C=C/C=C/C=C/1C` [Rapamycin (Sirolimus), Rapamycin, reference compound], the “Water solubility in words” value [1] is given as “insoluble”, the Solubility increase factor (physchem) is given as 92 and the solubility (physchem; [6]) is given as 240 µg/mL (≈ 0.263 mM).

With `CCC(C)n1ncn(-c2ccc(N3CCN(c4ccc(OCC5COC(Cn6cncn6)(c6ccc(Cl)cc6Cl)O5)cc4)CC3)cc2)c1=O` (centres unmarked) [Itraconazole, reference compound] the “Concentration in water without rubusoside (control sample)” value (physchem) was “not detected”, the “Solubility in water with solubilizer” value (physchem) was 21 µg/mL and the Solubility increase factor (physchem) was “Many”.

For `CC(=O)O[C@H]1C(=O)[C@@]2(C)[C@H]([C@H](OC(=O)c3ccccc3)[C@]3(O)C[C@H](OC(=O)[C@H](O)[C@@H](NC(=O)c4ccccc4)c4ccccc4)C(C)=C1C3(C)C)[C@]1(OC(C)=O)CO[C@@H]1C[C@@H]2O` [Paclitaxel, reference compound], the IC50 (PC3 cells; listed as paclitaxel) is listed as 31.2 nM, the IC50 (PC3 cells) is listed as 50 nM and the IC50 [2, 7] is listed as 0.69 μl/ml. For the same molecule, the IC50 [2, 8] was 13.7 nM, the “Solubility in water with solubilizer” value (physchem) was 10 µg/mL and the Solubility increase factor (physchem) was “up to 877”. For the same molecule, the “Concentration dissolved in rubusoside water solution” value (physchem) was 0.35 µg/mL, the IC50 [3] was > 1000 nM and the IC50 [4, 7] was 0.24 μl/ml. For the same molecule, the IC50 [4, 8] was 4.9 nM.

For `COc1cc(CNC(=O)CCCC/C=C/C(C)C)ccc1O` [Capsaicin, reference compound], the “Concentration in water without rubusoside (control sample)” value (physchem) was 57 µg/mL, the Solubility increase factor (physchem) was 86 and the “Concentration dissolved in rubusoside water solution” value (physchem) was 589 µg/mL. For the same molecule, the solubility (physchem; [9]) was 4920 µg/mL (≈ 16.1 mM) and the solubility (physchem; 25 °C, water, thermodynamic from solid, Solubility) was 57 µg/mL (≈ 0.187 mM).

For `COc1cc(C2Oc3cc([C@H]4Oc5cc(O)cc(O)c5C(=O)[C@@H]4O)ccc3OC2CO)ccc1O` (some centres unmarked) [Silybin (Silibinin), Silybin], the Solubility increase factor (physchem) was “Many” and the solubility (physchem; [6]) was 150 µg/mL (≈ 0.311 mM).

For `Cc1coc2c1C(=O)C(=O)c1c-2ccc2c1CCCC2(C)C` [Tanshinone IIA], the “Water solubility in words” value [1] is given as “nearly insoluble”, the solubility (physchem; [9]) is given as ~53.3 µg/mL (≈ 0.181 mM) and the solubility (physchem; 25 °C, aqueous with cosolvent or surfactant or cyclodextrin, thermodynamic from solid, Solubility in water with solubilizer, natural solubilizer (rubusoside) 20% w/v (200 mg in 1 ml)) is given as ~128 µg/mL (≈ 0.434 mM).

Molecule `C[C@@H]1CC[C@H]2[C@@H](C)C(=O)O[C@@H]3O[C@@]4(C)CC[C@@H]1[C@]32OO4` [Artemisinin, reference compound] has a Solubility increase factor (physchem) of 5 and a solubility (physchem; [6]) of 280 µg/mL (≈ 0.992 mM).

For `COC1=C(OC)C(=O)C(C/C=C(\C)CC/C=C(\C)CC/C=C(\C)CC/C=C(\C)CC/C=C(\C)CC/C=C(\C)CC/C=C(\C)CC/C=C(\C)CC/C=C(\C)CCC=C(C)C)=C(C)C1=O` [Coenzyme Q10], the “Solubility in water with solubilizer” value (physchem) was 111 µg/mL, the Solubility increase factor (physchem) was 1110 and the solubility (physchem; [6]) was 111 µg/mL (≈ 0.129 mM).

In the case of `C[C@@H]1[C@H](O)[C@@H](C)/C=C/C=C/C=C/C=C/C=C/C=C/C=C/[C@H](O[C@@H]2O[C@H](C)[C@@H](O)[C@H](N)[C@@H]2O)C[C@@H]2O[C@](O)(C[C@@H](O)C[C@@H](O)[C@H](O)CC[C@@H](O)C[C@@H](O)CC(=O)O[C@H]1C)C[C@H](O)[C@H]2C(=O)O` [Amphotericin B, reference compound], the “Aqueous drug concentration, AQUEOUS SOLUTION” value [1] is listed as 82 µg/mL and the “Aqueous drug concentration, 10% RUBUSOSIDE” value (physchem) is listed as 200 µg/mL.

For `O=C(O)c1cc(O)c(O)c(O)c1` [Gallic acid], the Solubility increase factor (physchem) was 9.6, the “Amount dissolved in 1 ml water” value (physchem; 400 mg rubusoside, 25° C.) was 106 mg and the “Amount dissolved in 1 ml water” value (physchem; 800 mg rubusoside, 37° C.) was 212 mg. The “Fold increase over amount dissolved in plain water” value (physchem; 800 mg rubusoside, 37° C.) was 19.3 fold and the solubility (physchem; [6]) was 106000 µg/mL (≈ 623 mM).

`CC[C@H]1OC(=O)[C@H](C)[C@@H](O[C@H]2C[C@@](C)(OC)[C@@H](O)[C@H](C)O2)[C@H](C)[C@@H](O[C@@H]2O[C@H](C)C[C@H](N(C)C)[C@H]2O)[C@](C)(O)C[C@@H](C)C(=O)[C@H](C)[C@@H](O)[C@]1(C)O` [Erythromycin, reference compound] gave a Solubility increase factor (physchem) of 11 and a solubility (physchem; [6]) of 5330 µg/mL (≈ 7.27 mM).

For `COc1cc([C@@H]2c3cc4c(cc3[C@H](O)[C@H]3COC(=O)[C@H]23)OCO4)cc(OC)c1OC` [Podophyllotoxin, reference compound], the “Water solubility in words” value [1] is given as “nearly insoluble” and the solubility (physchem; 25 °C, aqueous with cosolvent or surfactant or cyclodextrin, thermodynamic from solid) is given as 919 µg/mL (≈ 2.22 mM).

In the case of `Cc1ccc(-c2cc(C(F)(F)F)nn2-c2ccc(S(N)(=O)=O)cc2)cc1` [Celecoxib, reference compound], the “Concentration in water without rubusoside (control sample)” value (physchem) is reported as “not detected”, the Solubility increase factor (physchem) is reported as “Many” and the solubility (physchem; [6]) is reported as 488 µg/mL (≈ 1.28 mM).

For `CC(C)c1cccc(C(C)C)c1O` [Propofol, reference compound], the “Concentration in water without rubusoside (control sample)” value (physchem) was “no measurable propofol”, the Solubility increase factor (physchem) was 74 and the solubility (physchem; [6]) was 11700 µg/mL (≈ 65.6 mM).

For `C[C@@H]1O[C@@H](OC[C@H]2O[C@@H](Oc3c(-c4ccc(O)c(O)c4)oc4cc(O)cc(O)c4c3=O)[C@H](O)[C@@H](O)[C@@H]2O)[C@H](O)[C@H](O)[C@H]1O` [Rutin], the “Water solubility in words” value [1] is listed as “nearly insoluble” and the solubility (physchem; [6]) is listed as 1750 µg/mL (≈ 2.87 mM).

In the case of `C=C1C[C@@]23CC[C@H]4[C@@](C)(CCC[C@@]4(C)C(=O)O[C@@H]4O[C@H](CO)[C@@H](O)[C@H](O)[C@H]4O)[C@@H]2CC[C@]1(O[C@@H]1O[C@H](CO)[C@@H](O)[C@H](O)[C@H]1O)C3` [rubusoside, b-D-glucosyl ester of 13-O-b-D-glucosyl-steviol], the “Daily consumption that is safe and has no adverse effect” value [5] is reported as 8 mg rubusoside/kg body weight, the No-observed-effect level ([5]; estimate based on 383 mg/kg expressed as steviol) is reported as “up to 766 mg rubusoside/kg body weight” and the Water solubility (physchem) is reported as “about 60 g/100 mL water”. The solubility (physchem; 25 °C, water, Solubility in water) was ~400000 µg/mL (≈ 622 mM) and the solubility (physchem; 37 °C, water, Solubility in water) was ~800000 µg/mL (≈ 1240 mM).

For `C[C@@H]1[C@H](O)[C@@H](C)/C=C/C=C/CC/C=C/C=C/C=C/C=C/C(O[C@H]2O[C@H](C)[C@@H](O)[C@H](N)[C@@H]2O)CC2O[C@](O)(CC(O)C(O)CCC(O)CC(O)CC(O)CC(=O)O[C@H]1C)CC(O)C2C(=O)O` (some centres unmarked) [Nystatin, reference compound], the “Aqueous drug concentration, AQUEOUS SOLUTION” value [1] is given as 66 µg/mL and the “Aqueous drug concentration, 10% RUBUSOSIDE” value (physchem) is given as 1,100 μg/ml.

For `Cc1c(C)c2c(c(C)c1O)CC[C@@](C)(CCC[C@H](C)CCC[C@H](C)CCCC(C)C)O2` [Alpha-Tocopherol (VE), Alpha-tocopherol], the “Solubility in water with solubilizer” value (physchem) was 13,250 μg/mL and the Solubility increase factor (physchem) was “Many”.
